Experimental data as given in patent US20260234115A1, “LIPID COMPOUNDS, COMPOSITIONS, AND USES THEREOF” (Liberate Bio, Inc., priority 2023, published 2026).
Marks after values point to notes of the source that are not given here.

Tested on: mouse organs
Assay: In vivo activity screening in mice: organ mean total flux (p/s) of luciferase activity after injection of F2 LNP pools (Table 6, FIG. 7A-7C)
Conditions: luciferase mRNA
In short: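 C57BL/6J mice given one tail-vein injection of pooled Formulation F2 LNPs carrying firefly luciferase mRNA (0.25-3 mg/kg) in PBS. At 4-6 h, s.c. D-luciferin given; organs imaged ex vivo by IVIS within 10-15 min, after saline cardiac perfusion. Mean total flux (p/s) per organ ROI.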

SMILES: CCCCC/C=C\CCCOC(=O)CCCCCCC(=O)OCC(COC(=O)CCCCCCC(=O)OCCC/C=C\CCCCC)(COC(=O)CCCCCCC(=O)OCCC/C=C\CCCCC)COC(=O)CCC(CCCCCC)OC(=O)NCCN1CCCC1 (stereo not drawn) [Compound 46, 8,8′-di((Z)-dec-4-en-1-yl) O′1,O1-(2-(((8-(((Z)-dec-4-en-1-yl)oxy)-8-oxooctanoyl)oxy)methyl)-2-(((4-(((2-(pyrrolidin-1-yl)ethyl)carbamoyl)oxy)decanoyl)oxy)methyl)propane-1,3-diyl) di(octanedioate)]
- Organ Mean Total Flux Femur (Mouse 11, dose 0.5 mg/kg): 1.8 p/s (×10^6)
- Organ Mean Total Flux Heart (Mouse 11, dose 0.5 mg/kg): 4.1 p/s (×10^6)
- Organ Mean Total Flux Kidney (Mouse 11, dose 0.5 mg/kg): 2.1 p/s (×10^6)
- Organ Mean Total Flux Liver (Mouse 11, dose 0.5 mg/kg): 3107 p/s (×10^6)
- Organ Mean Total Flux Lung (Mouse 11, dose 0.5 mg/kg): 17.8 p/s (×10^6)
- Organ Mean Total Flux Muscle (Mouse 11, dose 0.5 mg/kg): 4.2 p/s (×10^6)
- Organ Mean Total Flux Pancreas (Mouse 11, dose 0.5 mg/kg): 0.9 p/s (×10^6)
- Organ Mean Total Flux Spleen (Mouse 11, dose 0.5 mg/kg): 1.8 p/s (×10^6)

SMILES: CCCCC/C=C\CCCOC(=O)CCCCC(=O)OCC(COC(=O)CCCCC(=O)OCCC/C=C\CCCCC)(COC(=O)CCCCC(=O)OCCC/C=C\CCCCC)COC(=O)CCC(CCCCCC)OC(=O)NCCN1CCCC1 (stereo not drawn) [Compound 47, O6-[2,2-bis[[6-[(Z)-dec-4-enoxy]-6-oxo-hexanoyl]oxymethyl]-3-[4-(2-pyrrolidin-1ylethylcarbamoyloxy)decanoyloxy]propyl]O1-[(Z)-dec-4-enyl]hexanedioate]
- Organ Mean Total Flux Femur (Mouse 5, dose 0.5 mg/kg): 15.1 p/s (×10^6)
- Organ Mean Total Flux Heart (Mouse 5, dose 0.5 mg/kg): 1.7 p/s (×10^6)
- Organ Mean Total Flux Kidney (Mouse 5, dose 0.5 mg/kg): 2.5 p/s (×10^6)
- Organ Mean Total Flux Liver (Mouse 5, dose 0.5 mg/kg): 974.3 p/s (×10^6)
- Organ Mean Total Flux Lung (Mouse 5, dose 0.5 mg/kg): 25.7 p/s (×10^6)
- Organ Mean Total Flux Muscle (Mouse 5, dose 0.5 mg/kg): 62.4 p/s (×10^6)
- Organ Mean Total Flux Pancreas (Mouse 5, dose 0.5 mg/kg): 4.4 p/s (×10^6)
- Organ Mean Total Flux Spleen (Mouse 5, dose 0.5 mg/kg): 67.0 p/s (×10^6)

SMILES: CCCCC/C=C\CCOC(=O)CCCC(=O)OCC(COC(=O)CCCC(=O)OCC/C=C\CCCCC)(COC(=O)CCCC(=O)OCC/C=C\CCCCC)COC(=O)CCC(CCCCCC)OC(=O)NCCN1CCCC1 (stereo not drawn) [Compound 49, O5-[2,2-bis[[5-[(Z)-non-3-enoxy]-5-oxo-pentanoyl]oxymethyl]-3-[4-(2-pyrrolidin-1-ylethylcarbamoyloxy)decanoyloxy]-propyl]O1-[(Z)-non-3-enyl]pentanedioate]
- Organ Mean Total Flux Femur (Mouse 13, dose 0.5 mg/kg): 10.2 p/s (×10^6)
- Organ Mean Total Flux Heart (Mouse 13, dose 0.5 mg/kg): 0.5 p/s (×10^6)
- Organ Mean Total Flux Kidney (Mouse 13, dose 0.5 mg/kg): 1.4 p/s (×10^6)
- Organ Mean Total Flux Liver (Mouse 13, dose 0.5 mg/kg): 185.5 p/s (×10^6)
- Organ Mean Total Flux Lung (Mouse 13, dose 0.5 mg/kg): 11.8 p/s (×10^6)
- Organ Mean Total Flux Muscle (Mouse 13, dose 0.5 mg/kg): 2.9 p/s (×10^6)
- Organ Mean Total Flux Pancreas (Mouse 13, dose 0.5 mg/kg): 7.5 p/s (×10^6)
- Organ Mean Total Flux Spleen (Mouse 13, dose 0.5 mg/kg): 57.1 p/s (×10^6)
